Laboratory results: US12667560B2, “Co-administration of mirdametinib and lifirafenib for use in treating cancers” (BeiGene, Ltd., priority 2020, dated 2026)
Where a name gives a salt, the structure may show the parent alone.

Tested on: subcutaneous Calu-6 tumors which harbor a K-RAS mutation
Assay: Efficacy study in Calu-6 K-RAS mutated human xenograft lung adenocarcinoma model
Assay type: in vivo, Balb/c nude mice
Details: Compound B maleate alone, 2.5 mg/kg (free base) p.o. BID, Group 2
Protocol: To determine the effects of Compound B Maleate and Compound A, alone or in combination, on growth of subcutaneous Calu-6 tumors which harbor a K-RAS mutation in Balb/c nude mice in an Efficacy Study.
Experimental designs for the Efficacy study are illustrated in Table 2.
Each mouse was inoculated subcutaneously at the right flank with Calu-6 tumor cells (5×10^6 cells in 0.1 ml 50% Matrigel® in MEM). Tubes containing suspended cells and syringes were kept on ice to avoid solidification of Matrigel®. 2× overage was implemented for cell injection. When mean tumor volume reached the indicated sizes in Table 2, animals were randomly assigned to the indicated groups in Table 2 and received the first dosing. […]
Tumor volumes and mouse body weights were measured three times weekly after tumors became palpable and before randomization and grouping. Afterwards, tumor volumes and mouse body weights were measured twice weekly to termination, in two dimensions using a caliper, and the tumor volumes were expressed in mm^3 using the formula: V=0.5 L×W^2, where L and W were the long and short diameters of the tumor, respectively. The TGI value for the drug A-treated group at Day X was calculated as following: TGI (%)={1−[mTV(drug at Day X)−mTV(drug at Day 0)]/[mTV(veh at Day X)−mTV(veh at Day 0)]}×100, where mTV represented mean tumor volume. […]

SMILES: O=C1CCc2c(Oc3ccc4c(c3)[C@@H]3[C@H](C4)[C@H]3c3nc4ccc(C(F)(F)F)cc4[nH]3)ccnc2N1 [Compound B maleate]
- inhibition of Calu-6 tumor growth compared to the vehicle control: significant inhibition
